Measured values published in US20150196544A1, “NOVEL BENZO[d][1,3]-DIOXOL DERIVATIVES” (priority 2005, published 2015).

Legend:
[1] = system: mice; test: Forced tail suspension test, immobility time; type: in vivo; settings: 15 mg/kg oral (as free base), versus vehicle control
Description: The product of Example 11 is tested at MDS Pharma by oral administration to mice (n=8) to determine its effect on total immobility time during forced tail suspension, using essentially the procedure of “Drug Discovery and Evaluation”, Vogel H G and Vogel W H (eds.), p. 304, 1997, Springer-Verlag, New York.

[2] = system: pooled human liver microsomes; test: Human liver microsome metabolic stability assay; type: in vitro ADME; settings: for % Remaining 30 min / % Remaining 60 min / % Remaining 120 min: pooled human liver microsomes 1.0 mg/mL, 1 μM test compound, 37° C.
Description: The objectives of the present study were to determine the metabolic stability of the test compounds in pooled liver microsomal incubations and to perform full scan LC-MS analysis for the detection of major metabolites. Samples of the test compounds, exposed to pooled human liver microsomes, were analyzed using HPLC-MS (or MS/MS) detection. For determining metabolic stability, multiple reaction monitoring (MRM) was used to measure the disappearance of the test compounds. For metabolite detection, Q1 full scans were used as survey scans to detect the major metabolites.
Human liver microsomes were obtained from Absorption Systems L.P. (Exton, Pa.). The incubation mixture was prepared as follows:
The reaction mixture, minus cofactors, was prepared. An aliquot of the reaction mixture (without cofactors) was incubated in a shaking water bath at 37° C. for 3 minutes. Another aliquot of the reaction mixture was prepared as the negative control. The test compound was added into both the reaction mixture and the negative control at a final concentration of 1 μM. An aliquot of the reaction mixture was prepared as a blank control, by the addition of plain organic solvent (not the test compound). The reaction was initiated by the addition of cofactors (not into the negative controls), and then incubated in a shaking water bath at 37° C. Aliquots (200 μL) were withdrawn in triplicate at 0, 15, 30, 60, and 120 minutes and combined with 800 μL of ice-cold 50/50 acetonitrile/deionized water to terminate the reaction. The positive controls, testosterone and propranolol, were run simultaneously with the test compounds in separate reactions. All samples were analyzed using LC-MS (or MS/MS). An LC-MRM-MS/MS method was used for metabolic stability. Also, Q1 full scan LC-MS methods were performed on the blank matrix and the test compound incubation samples. The Q1 scans served as survey scans to identify any sample unique peaks that might represent the possible metabolites. The masses of these potential metabolites can be determined from the Q1 scans.
The test compounds were evaluated in the human liver microsome assay described above along with paroxetine as a control. The columns of Table 2 labelled “% remaining” refer to the percentage of each test compound remaining after 30, 60 and 120 minute intervals in the human microsomal assay.

[3] = 30 mg oral solution, radiolabeled, healthy volunteers, cited from earlier work
[4] = biological target: T1, CYP2D6 (Homo sapiens, UniProt P10635); settings: mechanism-based; cited from earlier work
[5] = biological target: T1, CYP2D6; settings: clinical; cited from earlier work
[6] = cited from earlier work

T1 sequence (P10635 whole entry): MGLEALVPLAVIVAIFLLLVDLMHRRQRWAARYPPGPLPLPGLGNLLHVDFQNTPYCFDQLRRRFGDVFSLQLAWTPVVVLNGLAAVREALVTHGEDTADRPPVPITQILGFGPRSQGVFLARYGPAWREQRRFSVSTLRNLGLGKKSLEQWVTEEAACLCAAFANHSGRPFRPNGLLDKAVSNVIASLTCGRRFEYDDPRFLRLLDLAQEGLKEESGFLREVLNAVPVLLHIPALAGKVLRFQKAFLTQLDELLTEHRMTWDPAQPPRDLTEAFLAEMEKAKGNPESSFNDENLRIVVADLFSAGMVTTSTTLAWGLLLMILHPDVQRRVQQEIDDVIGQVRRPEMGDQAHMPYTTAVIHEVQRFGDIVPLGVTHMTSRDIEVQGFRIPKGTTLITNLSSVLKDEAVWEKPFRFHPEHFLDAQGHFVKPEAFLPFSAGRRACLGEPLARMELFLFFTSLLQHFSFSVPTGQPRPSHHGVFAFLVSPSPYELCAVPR

Row | SMILES | total immobility time during forced tail suspension [1] | stability in the microsome assay (in words) ([2]; human liver microsomes, summary of Table 2) | % Remaining 30 min [2] [%] | % Remaining 60 min [2] [%] | % Remaining 120 min [2] [%] | excreted in the feces as parent compound ([3]; 10-day period) | excreted in the feces, total ([3]; 10-day period) | excreted in the urine as metabolites ([3]; 10-day period) [%] | excreted in the urine as parent compound ([3]; 10-day period) [%] | excreted in the urine, total ([3]; 10-day post-dosing period) | inactivation of CYP2D6 (in words) [4] | reduction in CYP2D6 activity (in words) [5] | half-life, poor metabolizers versus extensive metabolizers ([6]; European cohort, low versus higher CYP2D6 activity) | coefficients of variability across Cmax, Cmin and AUC ([6]; steady state, test population)
1 | CC(C)(C)OC(=O)N1CC[C@@H](c2ccc(F)cc2)[C@H](CO)C1 [Example 11, (3S,4R)-tert-butyl 4-(4-fluorophenyl)-3-(hydroxymethyl)piperidine-1-carboxylate] | statistical reduction | – | – | – | – | – | – | – | – | – | – | – | – | –
2 | Fc1ccc([C@@H]2CCNC[C@H]2COc2ccc3c(c2)OCO3)cc1 [Compound 1, (3S,4R)-3-((benzo[d][1,3]dioxol-5-yloxy)methyl)-4-(4-fluorophenyl)piperidine] | – | relative stability | 51 | 51 | 44 | less than 1% | About 36% | 62 | 2 | approximately 64% | highly potent, mechanism based inactivator | dose-dependent, highly significant reduction | approximately 3 fold | 30-70%
3 | Cl.[2H]C1([2H])Oc2ccc(OC([2H])([2H])[C@@H]3CNCC[C@H]3c3ccc(F)cc3)cc2O1 [B, (3S,4R)-3-((2,2-dideuterobenzo[d][1,3]dioxol-5-yloxy)dideuteromethyl)-4-(4-fluorophenyl)piperidine hydrochloride] | – | – | 22 | 10 | 6 | – | – | – | – | – | – | – | – | –
4 | Cl.[2H]C1([2H])Oc2ccc(OC[C@@H]3CNCC[C@H]3c3ccc(F)cc3)cc2O1 [A, (3S,4R)-3-((2,2-dideuterobenzo[d][1,3]dioxol-5-yloxy)methyl)-4-(4-fluorophenyl)piperidine hydrochloride] | – | – | 29 | 26 | 16 | – | – | – | – | – | – | – | – | –
